Results published in patent US20080280920A1, “Plasminogen Activator Inhibitor-1 Inhibitors” (priority 2005, published 2008).

How the values were obtained:
Format in all cases: cell-based, human
CCRF-CEM = assay: NCI anticancer screen, CCRF-CEM; settings: Leukemia, 48 h
RPMI-8226 = assay: NCI anticancer screen, RPMI-8226; settings: RPMI-8226, Leukemia, 48 h
HOP-62 = assay: NCI anticancer screen, HOP-62; settings: HOP-62, Non-Small Cell Lung, 48 h
OVCAR-5 = assay: NCI anticancer screen, OVCAR-5; settings: OVCAR-5, Ovarian, 48 h; for GI50 / CC50: Homo sapiens; for CC50: read-out: LC50 (the source's name)
[1] = Homo sapiens, read-out: LC50 (the source's name)

SMILES | GI50 (CCRF-CEM; Homo sapiens) | GI50 (RPMI-8226; Homo sapiens) | GI50 (HOP-62; Homo sapiens) | GI50 (OVCAR-5) | CC50 (OVCAR-5) | TGI (OVCAR-5) | CC50 (CCRF-CEM; [1]) | TGI (CCRF-CEM) | CC50 (RPMI-8226; [1]) | TGI (RPMI-8226) | TGI (HOP-62) | LC50 (HOP-62; Homo sapiens)
CC(C)(C)OC(=O)Nc1ccc(O)c(C(=O)NCCOC(=O)NCCNC(=O)c2cc(OCc3ccccc3)ccc2OCc2ccccc2)c1 [Compound Q012052, 2-[5-(BOC-amino)-2-hydroxybenzoylamino]ethyl 2-[2,5-bis-(benzyl-oxy)benzoylamino]ethylcarbamate] | > 100 µM | 7.58 µM | > 100 µM | > 100 µM | – | – | – | – | – | – | – | –
COc1cc(CNCC2CCN(C(=O)OC(C)(C)C)CC2)cc(CN2CCN(c3ccccn3)CC2)c1O [Compound Q012132, 2-Methoxy-4-({[(N-t-butyloxycarbonylpiperidin-4-yl)methyl]amino}methyl)-6-[(4-pyridin-2-ylpiperazin-1-yl)methyl]phenol] | – | – | – | 29.3 µM | > 100 µM | >100 µM | – | – | – | – | – | –
CCOC(=O)c1ccc(CNCc2cc(CN3CCN(c4ccccn4)CC3)c(O)c(OC)c2)cc1 [Compound Q012135T] | 14.1 µM | 7.14 µM | 20.6 µM | 23.4 µM | 91.7 µM | 46.3 µM | 14.1 µM | 48.4 µM | 7.14 µM | 24.5 µM | 43.9 µM | 93.8 µM
COc1cc(CNc2ccc(C(=O)OC(C)(C)C)cc2)cc(CN2CCN(c3ccccn3)CC2)c1O [Compound Q012145T] | – | – | – | > 100 µM | – | – | – | – | – | – | – | –
CCOC(=O)[C@H](Cc1ccccc1)NCc1cc(CN2CCN(c3ccccn3)CC2)c(O)c(OC)c1 [Compound Q012147T] | – | – | – | > 100 µM | – | – | – | – | – | – | – | –
